Reference: the supplement of paper PMC11061612

Experiments:
Carboplatin = compound: C1CC(C1)(C(=O)[O-])C(=O)[O-].N.N.[Pt+2] [Carboplatin]; details: max 10 µM
Summary of the method: (§1)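 Viability was measured with CellTiter-Glo 2.0 luminescence after 72 hours of dosing at a final DMSO of typically 0.2%, and scaled between blank-well and DMSO-well means. Beforehand, cancer cell lines sat 24 hours at 37°C and 5% CO2 in 1536-well plates in 7.5 μl DMEM/F12 or RPMI with 10% FBS. A non-linear mixed effects model fitted two-parameter logistic curves to the dose responses. The single-agent IC50 comes from these fits.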

AZD5363 = compound: C1CN(CCC1(C(=O)N[C@@H](CCO)C2=CC=C(C=C2)Cl)N)C3=NC=NC4=C3C=CN4 [AZD5363]; details: max 10 µM
Summary of the method: as §1

AZD1775 = compound: C=CCn1c(=O)c2cnc(Nc3ccc(N4CCN(C)CC4)cc3)nc2n1-c1cccc(C(C)(C)O)n1 [AZD1775]; details: max 3 µM
Summary of the method: as §1

Trametinib = compound: CC(=O)Nc1cccc(-n2c(=O)n(C3CC3)c(=O)c3c(Nc4ccc(I)cc4F)n(C)c(=O)c(C)c32)c1 [Trametinib]; details: max 1 µM
Summary of the method: as §1

Paclitaxel = compound: CC(=O)O[C@H]1C(=O)[C@@]2(C)[C@H]([C@H](OC(=O)c3ccccc3)[C@]3(O)C[C@H](OC(=O)[C@H](O)[C@@H](NC(=O)c4ccccc4)c4ccccc4)C(C)=C1C3(C)C)[C@]1(OC(C)=O)CO[C@@H]1C[C@@H]2O [Paclitaxel]; details: max 3 µM
Summary of the method: as §1

Palbociclib = compound: CC(=O)c1c(C)c2cnc(Nc3ccc(N4CCNCC4)cn3)nc2n(C2CCCC2)c1=O [Palbociclib]; details: max 10 µM
Summary of the method: as §1

AZD1390 = compound: CC(C)n1c(=O)n(C)c2cnc3cc(F)c(-c4ccc(OCCCN5CCCCC5)nc4)cc3c21 [AZD1390]; details: max 0.3 µM
Summary of the method: as §1

Venetoclax = compound: CC1(C)CCC(CN2CCN(c3ccc(C(=O)NS(=O)(=O)c4ccc(NCC5CCOCC5)c([N+](=O)[O-])c4)c(Oc4cnc5[nH]ccc5c4)c3)CC2)=C(c2ccc(Cl)cc2)C1 [Venetoclax]; details: max 1 µM
Summary of the method: as §1

Dasatinib = compound: CC1=C(C(=CC=C1)Cl)NC(=O)C2=CN=C(S2)NC3=CC(=NC(=N3)C)N4CCN(CC4)CCO [Dasatinib]; details: max 2 µM
Summary of the method: as §1

SG3199 = compound: CC1=CN2[C@@H](C1)C=NC3=CC(=C(C=C3C2=O)OC)OCCCCCOC4=C(C=C5C(=C4)N=C[C@@H]6CC(=CN6C5=O)C)OC [SG3199]; details: max 0.001 µM
Summary of the method: as §1

AZD2811 = compound: CCN(CCO)CCCOc1ccc2c(Nc3cc(CC(=O)Nc4cccc(F)c4)[nH]n3)ncnc2c1 [AZD2811]; details: max 1 µM
Summary of the method: as §1

SN-38 = compound: CCc1c2c(nc3ccc(O)cc13)-c1cc3c(c(=O)n1C2)COC(=O)[C@]3(O)CC [SN-38]; details: max 0.3 µM
Summary of the method: as §1

AZD0156 = compound: CN(C)CCCOc1ccc(-c2ccc3ncc4c(c3c2)n(C2CCOCC2)c(=O)n4C)cn1 [AZD0156]; details: max 3 µM
Summary of the method: as §1

AZD4320 = compound: CN(CC[C@H](CSC1=CC=CC=C1)NC2=C(C=C(C=C2)S(=O)(=O)NC(=O)C3=CC=C(C=C3)N4CCC(CC4)[C@H](C5=CC=CC=C5C6=CC=C(C=C6)Cl)O)S(=O)(=O)C(F)(F)F)CCO [AZD4320]; details: max 1 µM
Summary of the method: as §1

Alisertib = compound: COc1cc(Nc2ncc3c(n2)-c2ccc(Cl)cc2C(c2c(F)cccc2OC)=NC3)ccc1C(=O)O [Alisertib]; details: max 10 µM
Summary of the method: as §1

Etoposide = compound: COc1cc([C@@H]2c3cc4c(cc3[C@@H](O[C@@H]3O[C@@H]5CO[C@@H](C)O[C@H]5[C@H](O)[C@H]3O)[C@H]3COC(=O)[C@H]23)OCO4)cc(OC)c1O [Etoposide]; details: max 10 µM
Summary of the method: as §1

Gefitinib = compound: COc1cc2ncnc(Nc3ccc(F)c(Cl)c3)c2cc1OCCCN1CCOCC1 [Gefitinib]; details: max 10 µM
Summary of the method: as §1

Prexasertib = compound: COc1cccc(OCCCN)c1-c1cc(Nc2cnc(C#N)cn2)n[nH]1 [Prexasertib]; details: max 1 µM
Summary of the method: as §1

Doxorubicin = compound: COc1cccc2c1C(=O)c1c(O)c3c(c(O)c1C2=O)C[C@@](O)(C(=O)CO)C[C@@H]3O[C@H]1C[C@H](N)[C@H](O)[C@H](C)O1 [Doxorubicin]; details: max 1 µM
Summary of the method: as §1

AZD5153 = compound: COc1nnc2ccc(N3CCC(c4ccc(OCCN5CCN(C)C(=O)[C@H]5C)cc4)CC3)nn12 [AZD5153]; details: max 1 µM
Summary of the method: as §1

Lapatinib = compound: CS(=O)(=O)CCNCc1ccc(-c2ccc3ncnc(Nc4ccc(OCc5cccc(F)c5)c(Cl)c4)c3c2)o1 [Lapatinib]; details: max 10 µM
Summary of the method: as §1

AZD8186 = compound: C[C@@H](Nc1cc(F)cc(F)c1)c1cc(C(=O)N(C)C)cc2c(=O)cc(N3CCOCC3)oc12 [AZD8186]; details: max 10 µM
Summary of the method: as §1

Crizotinib = compound: C[C@@H](Oc1cc(-c2cnn(C3CCNCC3)c2)cnc1N)c1c(Cl)ccc(F)c1Cl [Crizotinib]; details: max 10 µM
Summary of the method: as §1

Savolitinib = compound: C[C@@H](c1ccc2nccn2c1)n1nnc2ncc(-c3cnn(C)c3)nc21 [Savolitinib]; details: max 1 µM
Summary of the method: as §1

AZD6738 = compound: C[C@@H]1COCCN1C2=NC(=NC(=C2)C3(CC3)[S@](=N)(=O)C)C4=C5C=CNC5=NC=C4 [AZD6738]; details: max 10 µM
Summary of the method: as §1

AZD5991 = compound: Cc1c2c(nn1C)CSCc1cc(n(C)n1)CSc1cc(c3ccccc3c1)OCCCc1c(C(=O)O)n(C)c3c-2c(Cl)ccc13 [AZD5991]; details: max 1 µM
Summary of the method: as §1

AZD7648 = compound: Cc1cc2ncnn2cc1Nc1ncc2c(n1)n(C1CCOCC1)c(=O)n2C [AZD7648]; details: max 10 µM
Summary of the method: as §1

Taselisib = compound: Cc1nc(-c2cn3c(n2)-c2ccc(-c4cnn(C(C)(C)C(N)=O)c4)cc2OCC3)n(C(C)C)n1 [Taselisib]; details: max 10 µM
Summary of the method: as §1

Selumetinib = compound: Cn1cnc2c(F)c(Nc3ccc(Br)cc3Cl)c(C(=O)NOCCO)cc21 [Selumetinib]; details: max 10 µM
Summary of the method: as §1

SRA737 = compound: N#Cc1cnc(Nc2cc(NC[C@H]3CNCCO3)c(C(F)(F)F)cn2)cn1 [SRA737]; details: max 10 µM
Summary of the method: as §1

MK-2206 = compound: NC1(c2ccc(-c3nc4ccn5c(=O)[nH]nc5c4cc3-c3ccccc3)cc2)CCC1 [MK-2206]; details: max 10 µM
Summary of the method: as §1

Gemcitabine = compound: Nc1ccn([C@@H]2O[C@H](CO)[C@@H](O)C2(F)F)c(=O)n1 [Gemcitabine]; details: max 0.3 µM
Summary of the method: as §1

[1] = compound: O=C(Nc1ccc2[nH]nc(-c3ccncc3)c2c1)[C@@H]1CCN(CC(=O)N2CCN(c3ccc(-c4ncccn4)cc3)CC2)C1; details: max 5 µM
Summary of the method: as §1

Olaparib = compound: O=C(c1cc(Cc2n[nH]c(=O)c3ccccc23)ccc1F)N1CCN(C(=O)C2CC2)CC1 [Olaparib]; details: max 10 µM
Summary of the method: as §1

5-Fluorouracil = compound: O=c1[nH]cc(F)c(=O)[nH]1 [5-Fluorouracil]; details: max 20 µM
Summary of the method: as §1

Row | Cell Line | IC50, cell viability 72 h (Carboplatin) [nM] | IC50, cell viability 72 h (AZD5363) [nM] | IC50, cell viability 72 h (AZD1775) [nM] | IC50, cell viability 72 h (Trametinib) [nM] | IC50, cell viability 72 h (Paclitaxel) [nM] | IC50, cell viability 72 h (Palbociclib) [nM] | IC50, cell viability 72 h (AZD1390) [nM] | IC50, cell viability 72 h (Venetoclax) [nM] | IC50, cell viability 72 h (Dasatinib) [nM] | IC50, cell viability 72 h (SG3199) [nM] | IC50, cell viability 72 h (AZD2811) [nM] | IC50, cell viability 72 h (SN-38) [nM] | IC50, cell viability 72 h (AZD0156) [nM] | IC50, cell viability 72 h (AZD4320) [nM] | IC50, cell viability 72 h (Alisertib) [nM] | IC50, cell viability 72 h (Etoposide) [nM] | IC50, cell viability 72 h (Gefitinib) [nM] | IC50, cell viability 72 h (Prexasertib) [nM] | IC50, cell viability 72 h (Doxorubicin) [nM] | IC50, cell viability 72 h (AZD5153) [nM] | IC50, cell viability 72 h (Lapatinib) [nM] | IC50, cell viability 72 h (AZD8186) [nM] | IC50, cell viability 72 h (Crizotinib) [nM] | IC50, cell viability 72 h (Savolitinib) [nM] | IC50, cell viability 72 h (AZD6738) [nM] | IC50, cell viability 72 h (AZD5991) [nM] | IC50, cell viability 72 h (AZD7648) [nM] | IC50, cell viability 72 h (Taselisib) [nM] | IC50, cell viability 72 h (Selumetinib) [nM] | IC50, cell viability 72 h (SRA737) [nM] | IC50, cell viability 72 h (MK-2206) [nM] | IC50, cell viability 72 h (Gemcitabine) [nM] | IC50, cell viability 72 h [1] [nM] | IC50, cell viability 72 h (Olaparib) [nM] | IC50, cell viability 72 h (5-Fluorouracil) [nM]
1 | HT-29 (Colorectal Carcinoma) | > 10000 | > 10000 | 310 | 11.9 | 18 | > 10000 | > 300 | > 1000 | > 2000 | > 1 | > 1000 | 64.7 | > 3000 | > 1000 | > 10000 | > 10000 | > 10000 | 28.3 | > 1000 | 155 | > 10000 | > 10000 | 6730 | > 1000 | 2390 | > 1000 | > 10000 | 2220 | 1000 | 4640 | > 10000 | 161 | 436 | > 10000 | > 20000
2 | IHH-4 (Thyroid Gland Carcinoma) | > 10000 | > 10000 | 414 | 85.3 | 7 | > 10000 | > 300 | > 1000 | 961 | > 1 | > 1000 | 5.41 | > 3000 | > 1000 | 5970 | 1670 | > 10000 | 99.4 | 275 | 680 | > 10000 | > 10000 | 7340 | > 1000 | 4340 | > 1000 | > 10000 | > 10000 | 4470 | > 10000 | > 10000 | 8.74 | 1220 | > 10000 | 3430
3 | KARPAS-620 (Plasma Cell Myeloma) | > 10000 | 1620 | 1480 | 929 | 6.98 | > 10000 | > 300 | 84.6 | > 2000 | > 1 | > 1000 | > 300 | > 3000 | 5.91 | 10000 | > 10000 | > 10000 | 80.4 | > 1000 | 167 | > 10000 | > 10000 | 4750 | > 1000 | > 10000 | 59.9 | > 10000 | 501 | 5720 | > 10000 | 2230 | > 300 | > 5000 | > 10000 | > 20000
4 | KARPAS-1106P (B-Cell Non-Hodgkin's Lymphoma) | > 10000 | > 10000 | 495 | > 1000 | 134 | > 10000 | > 300 | > 1000 | 213 | > 1 | > 1000 | 3.05 | > 3000 | > 1000 | > 10000 | 1790 | > 10000 | 11.2 | 146 | 132 | > 10000 | 705 | 4000 | > 1000 | 3960 | 127 | > 10000 | 462 | > 10000 | 2180 | > 10000 | 18.3 | > 5000 | > 10000 | > 20000
5 | KATOIII (Gastric Carcinoma) | > 10000 | > 10000 | > 3000 | 893 | > 3000 | > 10000 | > 300 | > 1000 | > 2000 | > 1 | > 1000 | > 300 | > 3000 | > 1000 | 1790 | > 10000 | > 10000 | 420 | > 1000 | > 1000 | > 10000 | > 10000 | > 10000 | > 1000 | > 10000 | > 1000 | > 10000 | > 10000 | > 10000 | > 10000 | > 10000 | > 300 | 4460 | > 10000 | 14300
